{"source": "patent US5271935A", "about": "“Antibiotic, cammunocin, a process for the preparation thereof, and the use thereof as a pharmaceutical” (Hoechst Aktiengesellschaft, priority 1988, dated 1993)", "origin": "cited, not measured here", "test_system": "Gram-positive bacteria", "conditions": "other known antibiotics", "data": [{"substance": "amphomycin", "values": [{"measurement": "requirement for calcium ions to show an antibiotic effect", "result": 1.0, "unit": "mM"}]}]}
